Measurements taken from article PMC5598241 (Toxicology Reports, 2015).
One block for each compound: values may come before it.

How the values were obtained:
[1] = tested on: P450 enzymes CYP1A2, CYP2C9, CYP2C19, CYP2D6 and CYP3A4; conditions: furanocoumarin dimers versus monomer; cited from earlier work
Sprague Dawley (SD) rats [2] = assay: Liver function tests after single oral PAR overdose with or without GFJ or BGT; type: in vivo, rat; conditions: for Liver function tests ALP / Liver function tests ALT / Liver function tests AST: PAR 1725 mg/kg oral alone, mean ± SD, n = 5
Sprague Dawley (SD) rats [3] = assay: Full blood count after drug administration; type: in vivo, rat; conditions: for thrombocytopenia (low platelet count): all test animals given PAR, GFJ and BGT = groups co-treated with PAR; for Full blood count Hb / Full blood count Hct / Full blood count MCH / Full blood count MCHC / Full blood count MCV / Full blood count Plt / Full blood count RCC / Full blood count WCC: PAR 1725 mg/kg oral alone, mean ± SD, n = 3
humans = conditions: stated without reference; cited from earlier work
SD rats = assay: Preliminary determination of the toxic dose of PAR; type: in vivo, rat; conditions: preliminary experiment
[4] = PAR plasma concentration by HPLC; type: in vivo; conditions: Sprague Dawley, rat, oral, 1725 mg/kg
[5] = 48 h after dosing, listed as PAR only
[6] = 48 h after dosing, listed as PAR-only
[7] = PAR 1725 mg/kg single dose, 72 h, 3 rats
[8] = PAR 1822 mg/kg single dose, 72 h, 3 rats

Compound: paradisine A
enzyme inhibitor potency relative to 6-7-dihydroxybergamottin (DHB) [1]: over 20 times
enzyme inhibitor potency relative to BGT (GF-I-2) [1]: over 100 times

Compound: CC(C)=CCC/C(C)=C/COc1c2ccoc2cc2oc(=O)ccc12 [BGT, bergamottin]
PAR-induced hepatotoxicity after PAR overdose (Sprague Dawley (SD) rats [2]; co-administered orally with PAR 1725 mg/kg in rats): prevented
thrombocytopenia (low platelet count) (Sprague Dawley (SD) rats [3]): moderate

Liver function tests ALP (Sprague Dawley (SD) rats [2]; 24 h after dosing): 319 ± 2.1 units/l
Liver function tests ALP (Sprague Dawley (SD) rats [2]; 48 h after dosing): 296 ± 148.5 units/l
Liver function tests ALP (Sprague Dawley (SD) rats [2]; 72 h after dosing): 267 ± 38.9 units/l
Full blood count Hb (Sprague Dawley (SD) rats [3]; 24 h): 15.2 ± 0
Full blood count Hct (Sprague Dawley (SD) rats [3]; 24 h): 0.439 ± 0
Full blood count MCH (Sprague Dawley (SD) rats [3]; 24 h): 19.9 ± 0
Full blood count MCHC (Sprague Dawley (SD) rats [3]; 24 h): 34.5 ± 0
Full blood count MCV (Sprague Dawley (SD) rats [3]; 24 h): 57.6 ± 1
Full blood count Plt (Sprague Dawley (SD) rats [3]; 24 h): 1159 ± 81
Full blood count RCC (Sprague Dawley (SD) rats [3]; 24 h): 7.6 ± 0
Full blood count WCC (Sprague Dawley (SD) rats [3]; 24 h): 4.1 ± 1
Full blood count Hb (Sprague Dawley (SD) rats [3]; 48 h): 15.3 ± 1
Full blood count Hct (Sprague Dawley (SD) rats [3]; 48 h): 0.464 ± 0
Full blood count MCH (Sprague Dawley (SD) rats [3]; 48 h): 20.4 ± 0
Full blood count MCHC (Sprague Dawley (SD) rats [3]; 48 h): 33.1 ± 0
Full blood count MCV (Sprague Dawley (SD) rats [3]; 48 h): 61.1 ± 1
Full blood count Plt (Sprague Dawley (SD) rats [3]; 48 h): 310 ± 305
Full blood count RCC (Sprague Dawley (SD) rats [3]; 48 h): 7.5 ± 0
Full blood count WCC (Sprague Dawley (SD) rats [3]; 48 h): 5.9 ± 0
Full blood count Hb (Sprague Dawley (SD) rats [3]; 72 h): 13.6 ± 2
Full blood count Hct (Sprague Dawley (SD) rats [3]; 72 h): 0.406 ± 0
Full blood count MCH (Sprague Dawley (SD) rats [3]; 72 h): 19.8 ± 1
Full blood count MCHC (Sprague Dawley (SD) rats [3]; 72 h): 33.7 ± 1
Full blood count MCV (Sprague Dawley (SD) rats [3]; 72 h): 58.9 ± 4
Full blood count Plt (Sprague Dawley (SD) rats [3]; 72 h): 326 ± 293
Full blood count RCC (Sprague Dawley (SD) rats [3]; 72 h): 6.8 ± 1
Full blood count WCC (Sprague Dawley (SD) rats [3]; 72 h): 4.7 ± 1
thrombocytopenia (low platelet count) (Sprague Dawley (SD) rats [3]): thrombocytopenia
concentration at 24 h [4]: 5720 ng/mL
concentration at 48 h [4]: 4450 ng/mL
concentration at 72 h [4]: 2020 ng/mL
Compound: CC(=O)Nc1ccc(O)cc1 [PAR, paracetamol]
hepatotoxic dose of PAR in humans (humans): 100 mg/kg
Liver function tests ALT (Sprague Dawley (SD) rats [2]; 24 h after dosing): 63 ± 41.3 units/l
Liver function tests AST (Sprague Dawley (SD) rats [2]; 24 h after dosing): 156 ± 76.2 units/l
Liver function tests ALT (Sprague Dawley (SD) rats [2]; [5]): 837 ± 268 units/l
Liver function tests AST (Sprague Dawley (SD) rats [2]; [5]): 1359 ± 405 units/l
Liver function tests ALT (Sprague Dawley (SD) rats [2]; [6]): 837 ± 268.0 units/l
Liver function tests AST (Sprague Dawley (SD) rats [2]; [6]): 1359 ± 404.5 units/l
Liver function tests ALT (Sprague Dawley (SD) rats [2]; 72 h after dosing): 419 ± 690.1 units/l
Liver function tests AST (Sprague Dawley (SD) rats [2]; 72 h after dosing): 512 ± 657.9 units/l
change in liver enzymes (SD rats; PAR 1000 mg dose, 24, 48 and 72 h): no change
ALP (SD rats; [7]): 260.0 ± 36
AST (SD rats; [7]): 512.0 ± 593
ALP (SD rats; [8]): 223.7 ± 82
ALT (SD rats; [8]): 44.3 ± 3
AST (SD rats; [8]): 104.0 ± 14

Compound: paradisine B
enzyme inhibitor potency relative to 6-7-dihydroxybergamottin (DHB) [1]: over 20 times
enzyme inhibitor potency relative to BGT (GF-I-2) [1]: over 100 times
